In patent US20180153837A1, “METHODS OF IMPROVING PHYSIOLOGICAL RESPONSES RELATED TO POST-TRAUMATIC STRESS DISORDER THROUGH DIETARY SUPPLEMENTATION” (Natural Alternatives International, Inc., priority 2015, published 2018):
Where two headings read alike, the source gives them in different places.

Legend:
[1] = tested on: corticosterone
Procedure: (§1) Adult male Sprague-Dawley rats weighing 200-250 gm (n=122) were habituated to housing conditions for at least seven days. All animals were housed four per cage in a vivarium with stable temperature and a reversed 12-h light/dark cycle, with unlimited access to food and water. β-alanine was provided with glucomannan in a powder form in an 80:20 blend. Rats were provided with 100 mg of the powder per kg of body mass (a total of 30 mg of powder was dissolved in 25 ml of water). PL treated rats were provided with the vehicle (glucommanan) at the same relative dose. Animals were handled once daily. All testing was performed during the dark phase in dim red light conditions. This study was performed according to the principles and guidelines of the National Institute of Health Guide for the Care and Use of Laboratory Animals. All treatment and testing procedures were approved by the Animal Care Committee of the Ben-Gurion University of the Negev, Israel.
Following the 7-day acclimation period in which all rats received a normal powder diet, they were randomized into the four groups. Following 30-days of either normal diet or β-alanine supplemented diet the rats were exposed to either the PSS or sham protocol. […]
Plates were read at 450 nm. […] All samples were measured in duplicate.

[2] = tested on: mice; settings: β-alanine supplemented diet; cited from earlier work
[3] = tested on: BDNF; settings: mice, β-alanine supplemented diet; cited from earlier work
[4] = tested on: brain carnosine; settings: mice, β-alanine supplemented diet; cited from earlier work
[5] = tested on: BDNF
Procedure: as §1
(§2) Following the 7-day acclimation period in which all rats received a normal powder diet, they were randomized into the four groups. Following 30-days of either normal diet or β-alanine supplemented diet the rats were exposed to either the PSS or sham protocol. All behavioral tests were conducted 7 days following the PSS or sham protocol, and the rats were then sacrificed 24 hours later and brains were removed. Diets were maintained until the end of the study.

[6] = β-alanine taken as a free amino acid; cited from earlier work
[7] = tested on: brain carnosine; settings: for Brain Carnosine Concentrations, Amygdala / Brain Carnosine Concentrations, Cortex / Brain Carnosine Concentrations, Hippocampus / Brain Carnosine Concentrations, Hypothalamus / Brain Carnosine Concentrations, Olfactory bulb / Brain Carnosine Concentrations, Thalamus: 30 days BA, mean ± SD
Procedure: as §1
Rats were randomly assigned to one of four treatment groups (n=30 or 31 per group):
as §2
(§3) Following the 30-day supplementation regimen, animals were exposed to the PSS protocol. The PSS protocol consisted of placing the experimental animal on well-soiled cat litter (in use by the cat for 2 days, sifted for stools) for 10 minutes in a closed environment. Control animals were exposed to fresh, unused litter for the same amount of time. The situational reminder consisted of placing animals on fresh, unused cat litter for 15 minutes.
Carnosine concentrations in brain homogenates were determined by LC-MS-MS analysis.
Brains were partially thawed on ice and six brain regions were sampled: cerebral cortex, hypothalamus, hippocampus, amygdala, olfactory bulb, and thalamus. Each sample was weighed and transferred into individual vials for further homogenization.
Brain samples were homogenized in saline (0.9% NaCl; 100 mg/l ml) supplemented with 1 mM EDTA, using Polytron Homogenizer. Homogenates were stored at −20°±5° C. prior to LC/MS/MS analysis. L-Carnosine purchased from Sigma was used to prepare standards for the calibration curve (in ppb). Samples were diluted ×5 prior to analysis. The concentration read from the standard curve was multiplied by the dilution factor and converted to ppm units.

[8] = tested on: animal model of post-traumatic stress disorder (PTSD)
Procedure: as §1, §2, §3

[9] = PSS+BA: rats exposed to PSS, Day 8 post-PSS
[10] = UNEX+BA: rats not exposed to PSS
[11] = PSS+PL compared with PSS+BA (and UNEX groups), 7 days after PSS

## NCCC(=O)O [BA, β-alanine]
[1]; PSS+BA compared with unexposed animals, p<0.001
  corticosterone concentrations: significantly higher corticosterone concentrations
[1]; exposed rats normal diet versus exposed rats BA, p=0.837
  corticosterone concentrations: No significant differences
[2]
  activity in the open arms of an elevated plus-maze test: significantly greater activity
[3]
  concentration of BDNF in the hippocampus: increase the concentration of BDNF
[4]
  brain carnosine concentrations in the cerebral cortex and hypothalamus: increase brain carnosine concentrations
[5]; PSS+BA compared with PSS+PL, p<0.001
  BDNF expression, CA1 subregion: significantly greater than exposed rats fed a normal diet
[5]; PSS+BA compared with PSS+PL, p=0.011
  BDNF expression, DG subregion: greater
[5]; PSS+BA compared with unexposed animals
  BDNF expression, CA1 subregion: significantly lower than unexposed animals
[5]; PSS+BA compared with unexposed animals (p=0.765, p=0.818)
  BDNF expression, DG subregion: not statistically different
[5]; UNEX+BA versus UNEX+PL
  BDNF expression in unexposed rats: did not appear to increase BDNF expression
[6]
  duration of flushing/tingling of the skin: less than 60 minutes
[7]; [9]
  Brain Carnosine Concentrations, Amygdala: 3.52 ± 3.84 a, c mg · L^−1
  Brain Carnosine Concentrations, Cortex: 6.55 ± 4.90 a, c mg · L^−1
  Brain Carnosine Concentrations, Hippocampus: 5.58 ± 4.39 a, c mg · L^−1
  Brain Carnosine Concentrations, Hypothalamus: 4.54 ± 4.04 a, c mg · L^−1
  Brain Carnosine Concentrations, Olfactory bulb: 13,109 ± 9,773 mg · L^−1
  Brain Carnosine Concentrations, Thalamus: 5.97 ± 4.48 a, c mg · L^−1
[7]; [10]
  Brain Carnosine Concentrations, Amygdala: 2.34 ± 3.04 mg/L
  Brain Carnosine Concentrations, Cortex: 3.78 ± 4.47 a mg · L^−1
  Brain Carnosine Concentrations, Hippocampus: 3.75 ± 3.98 a mg · L^−1
  Brain Carnosine Concentrations, Hypothalamus: 2.60 ± 2.85 mg/L
  Brain Carnosine Concentrations, Olfactory bulb: 8,309 ± 6,887 mg · L^−1
  Brain Carnosine Concentrations, Thalamus: 3.99 ± 5.10 a mg · L^−1
[7]; animals supplemented with BA compared to PL
  Brain carnosine concentrations in the hippocampus and other brain sections: significantly greater
[7]; supplemented versus normal diet
  influence on carnosine concentrations in the olfactory bulb: did not appear to have any influence
[8]; PSS+BA compared with PSS+PL, p=0.085
  startle amplitude: tended to have a lower startle amplitude
[8]; PSS+BA compared with UNEX+BA
  EPM scores: comparable scores to UNEX+BA
[8]; PSS+BA compared with unexposed animals (normal diet p<0.001; BA p=0.0001)
  startle amplitude: significantly greater
[8]; PSS+BA compared with unexposed animals (normal diet p=0.01; BA p=0.003)
  immobility upon cue: significantly greater immobility upon cue
[8]; PSS+BA less than PSS+PL, p=0.148
  freezing, difference: approximately 6%
[8]; PSS+BA versus PSS+PL, p=0.148
  freezing, significance of difference: not statistically different
[8]; PSS+BA, Day 8
  freezing upon cue-exposure (percentage of total time): 34.8%
[8]; [11]
  number of open arm entries in the EPM: significantly less
  time in the open arms of the EPM: significantly less time in the open arms
[8]; PSS+PL compared with PSS+BA, p<0.05
  Anxiety index: higher
[8]; animals exposed to PSS regardless of diet versus unexposed groups, p<0.001
  startle habituation score: significantly lower habituation score
[8]; exposed + β-alanine versus exposed not supplemented, p=0.085
  lower startle response: 19%
[8]; exposed + β-alanine versus exposed not supplemented, p=0.148
  lower freezing response: 15%
